Assay results published in article PMC10967448 (Antibiotics, 2024).
≈ marks a conversion by molar mass, not a printed value. Like-named read-outs stand apart in the source and are kept apart here. Square brackets hold non-standard residues; d marks the D form. Peptide text beside a SMILES is read from it. Aib = CC(C)(N)C(=O)O

Columns and labels:
M. smegmatis [1] = system: M. smegmatis
ClpC = ClpC (Mycolicibacterium smegmatis, UniProt A0R574); experiment: biochemical; type: binding, Mycobacterium smegmatis
Text: (§1) All the binding data were double-referenced by blank cycle and reference flow cell subtraction. The resulting data fit a 1:1 Langmuir binding model using Biacore Insight Evaluation Software 4.0 (GE Healthcare).

M. smegmatis [2] = system: M. smegmatis; remark: listed apart in the source
ClpC (S437P) = ClpC (S437P) (Mycolicibacterium smegmatis, UniProt A0R574, S437P); experiment: biochemical; type: binding, Mycobacterium smegmatis
Text: as §1

[3] = system: pandrug-resistant Acinetobacter baumannii; parameters: method as in PMID 36081797; conditions: cited from earlier work
ClpCP1P2 = conditions: 10 μM COG1410; 1 μM ClpC, 2 μM ClpP1 and ClpP2, 100 μM ATP, 1 μM FITC-casein, 1 h, 37 °C, pH 7.5
[4] = […], Tables 2 and 3 print no unit (text b20 uses μg/mL), micro-dilution, 37 °C, 48 h
[5] = […], Tables 2 and 3 print no unit, micro-dilution, 37 °C, 48 h
[6] = strain clpC (KD), Tables 2 and 3 print no unit, micro-dilution, 37 °C, 48 h

Sequence of ClpC (S437P) (A0R574 whole entry S437P, looked up): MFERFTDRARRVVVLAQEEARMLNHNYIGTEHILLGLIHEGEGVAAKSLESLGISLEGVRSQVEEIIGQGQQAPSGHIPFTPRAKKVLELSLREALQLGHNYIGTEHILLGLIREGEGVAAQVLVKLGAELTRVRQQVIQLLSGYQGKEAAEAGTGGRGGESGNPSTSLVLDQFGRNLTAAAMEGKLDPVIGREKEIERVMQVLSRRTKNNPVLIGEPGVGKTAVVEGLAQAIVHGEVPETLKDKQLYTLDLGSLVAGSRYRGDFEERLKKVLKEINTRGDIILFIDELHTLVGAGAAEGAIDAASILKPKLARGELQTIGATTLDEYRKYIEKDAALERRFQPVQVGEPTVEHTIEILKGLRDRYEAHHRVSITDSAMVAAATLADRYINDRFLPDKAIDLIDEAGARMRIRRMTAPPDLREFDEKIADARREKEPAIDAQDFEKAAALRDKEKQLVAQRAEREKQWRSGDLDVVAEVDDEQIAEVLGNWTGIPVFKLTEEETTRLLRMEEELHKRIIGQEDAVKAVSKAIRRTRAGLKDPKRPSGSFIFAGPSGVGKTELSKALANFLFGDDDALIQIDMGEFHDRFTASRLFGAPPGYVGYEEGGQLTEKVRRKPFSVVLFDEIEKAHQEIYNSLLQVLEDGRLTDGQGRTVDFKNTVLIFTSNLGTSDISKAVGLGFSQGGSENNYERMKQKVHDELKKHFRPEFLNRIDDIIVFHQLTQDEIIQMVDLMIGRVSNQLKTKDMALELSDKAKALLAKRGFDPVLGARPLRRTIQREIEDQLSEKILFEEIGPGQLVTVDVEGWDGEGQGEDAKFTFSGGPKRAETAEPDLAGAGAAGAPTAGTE
Sequence of ClpC (A0R574 whole entry): as the sequence (A0R574 whole entry S437P, looked up) above, with P437S counted along it

Compound: CO[C@@]1(NC(=O)Cc2cccs2)C(=O)N2C(C(=O)O)=C(COC(N)=O)CS[C@@H]21 [cefoxitin]
- MIC (M. smegmatis [1]; [4]): 16
- MIC (M. smegmatis [1]; [5]): 16 µg/mL (≈ 37.4 µM)
- MIC (M. smegmatis [1]; [6]): 16 µg/mL (≈ 37.4 µM)

Compound: CC(=O)NC[C@H]1CN(c2ccc(N3CCOCC3)c(F)c2)C(=O)O1 [linezolid]
- MIC (M. smegmatis [1]; [4]): 1
- MIC (M. smegmatis [1]; [5]): 1 µg/mL (≈ 2.96 µM)
- MIC (M. smegmatis [1]; [6]): 1 µg/mL (≈ 2.96 µM)

Compound: CC(=O)N[C@@H](C)C(=O)N[C@@H](CO)C(=O)NC(C)(C)C(=O)N[C@@H](CC(C)C)C(=O)N[C@@H](CCCNC(=N)N)C(=O)N[C@@H](CCCCN)C(=O)N[C@@H](CC(C)C)C(=O)NC(C)(C)C(=O)N[C@@H](CCCCN)C(=O)N[C@@H](CCCNC(=N)N)C(=O)N[C@@H](CC(C)C)C(=O)N[C@@H](CC(C)C)C(N)=O [COG1410] (Ac-AS[Aib]LRKL[Aib]KRLL-NH2)
- Kd (ClpC): 2030 nM
- kon (ClpC; pH 7.4, read-out: association constant (ka)): 5780 M⁻¹ s⁻¹
- MBC (M. smegmatis [2]; strain 35g/pSMT3-ClpC (S437P)): >256 µg/mL
- MBC (M. smegmatis [2]; strain clpC (KD), knockdown): >256 µg/mL
- MBC (M. smegmatis [2]; strain clpC (KD)/pSMT3-ClpC (S437P)): >256 µg/mL
- MIC (M. smegmatis [1]; strain 35g/pSMT3-ClpC (S437P), micro-dilution, 37 °C, 48 h, triplicate): 256 µg/mL (≈ 182 µM)
- MIC (M. smegmatis [1]; strain WT/pSMT3-ClpC (overexpression), micro-dilution, 37 °C, 48 h, triplicate): 16 µg/mL (≈ 11.4 µM)
- MIC (M. smegmatis [1]; strain clpC (KD), knockdown, micro-dilution, 37 °C, 48 h, triplicate): >256 µg/mL
- MIC (M. smegmatis [1]; strain clpC (KD)/pSMT3-ClpC (S437P), micro-dilution, 37 °C, 48 h, triplicate): >256 µg/mL
- Kd (ClpC (S437P)): 1310 nM
- kon (ClpC (S437P); pH 7.4, read-out: ka): 9900 M⁻¹ s⁻¹

Compound: polymyxin B
- fold increase of MIC after 55 passages in the presence of sub-MIC agent [3]: 64 fold

Compound: LRVRLASHLRKLRKRLL [COG133]
- increase in proteolytic activity, ClpCP1P2 system (ClpCP1P2): no influence on proteolytic activity
- anti-mycobacterial activity (M. smegmatis [1]; M. smegmatis, result in words): did not demonstrate anti-mycobacterial activity
- MIC (M. smegmatis [1]; [4]): >256
- MIC (M. smegmatis [1]; [5]): > 256 µg/mL
- MIC (M. smegmatis [1]; [6]): > 256 µg/mL

Compound: NCC[C@H](O)C(=O)N[C@@H]1C[C@H](N)[C@@H](O[C@H]2O[C@H](CN)[C@@H](O)[C@H](O)[C@H]2O)[C@H](O)[C@H]1O[C@H]1O[C@H](CO)[C@@H](O)[C@H](N)[C@H]1O [amikacin]
- MIC (M. smegmatis [1]; [4]): 0.5
- MIC (M. smegmatis [1]; [5]): 0.5 µg/mL (≈ 0.854 µM)
- MIC (M. smegmatis [1]; [6]): 0.5 µg/mL (≈ 0.854 µM)

Compound: IRMRIRVLL [antiTB_1080]
- MIC (M. smegmatis [1]; [4]): 32
- MIC (M. smegmatis [1]; [5]): 128 µg/mL
- MIC (M. smegmatis [1]; [6]): > 256 µg/mL

Compound: CC[C@H]1OC(=O)[C@H](C)[C@@H](O[C@H]2C[C@@](C)(OC)[C@@H](O)[C@H](C)O2)[C@H](C)[C@@H](O[C@@H]2O[C@H](C)C[C@H](N(C)C)[C@H]2O)[C@](C)(O)C[C@@H](C)CN(C)[C@H](C)[C@@H](O)[C@]1(C)O [azithromycin]
- MIC (M. smegmatis [1]; [4]): 2
- MIC (M. smegmatis [1]; [5]): 2 µg/mL (≈ 2.67 µM)
- MIC (M. smegmatis [1]; [6]): 2 µg/mL (≈ 2.67 µM)

Compound: LRKLRKRLVRLASHLRKLRKRLL [ApoE23]
- increase in proteolytic activity, ClpCP1P2 system (ClpCP1P2): substantial increase in proteolytic activity
- MIC (M. smegmatis [1]): 128 µg/mL
- MIC (M. smegmatis [1]; [4]): 128
- MIC (M. smegmatis [1]; [5]): > 128 µg/mL
- MIC (M. smegmatis [1]; [6]): > 128 µg/mL

Compound: WKWLKKWIK [antiTB_1026]
- MIC (M. smegmatis [1]; [4]): 32
- MIC (M. smegmatis [1]; [5]): 256 µg/mL
- MIC (M. smegmatis [1]; [6]): > 256 µg/mL
